# Results reported in patent US7494714B2, “Surfaces that resist the adsorption of biological species” (President & Fellows of Harvard College, priority 2000, dated 2009).
# Like-named read-outs stand apart in the source and are kept apart here. Where a SMILES comes first, the peptide text is derived from it. [ ]: non-standard residue; d: D form. Sar = CNCC(=O)O
# Legend:
# [1] = target: T1, fibrinogen (Bos taurus, UniProt P02672+P02676+P12799); test: SPR adsorption of fibrinogen to SAMs / grafted polymer films; format: binding, bovine; conditions: for % ML 30 min / dR/dt on / % ML 3 min: fibrinogen; for % ML 30 min / dR/dt on / % Fib off: single-component SAMs (a) and mixed SAMs (b); for % ML 3 min: single-component SAMs (a, RSH) and mixed SAMs (b, RNH2)
# T1 sequence (P02672 20-615): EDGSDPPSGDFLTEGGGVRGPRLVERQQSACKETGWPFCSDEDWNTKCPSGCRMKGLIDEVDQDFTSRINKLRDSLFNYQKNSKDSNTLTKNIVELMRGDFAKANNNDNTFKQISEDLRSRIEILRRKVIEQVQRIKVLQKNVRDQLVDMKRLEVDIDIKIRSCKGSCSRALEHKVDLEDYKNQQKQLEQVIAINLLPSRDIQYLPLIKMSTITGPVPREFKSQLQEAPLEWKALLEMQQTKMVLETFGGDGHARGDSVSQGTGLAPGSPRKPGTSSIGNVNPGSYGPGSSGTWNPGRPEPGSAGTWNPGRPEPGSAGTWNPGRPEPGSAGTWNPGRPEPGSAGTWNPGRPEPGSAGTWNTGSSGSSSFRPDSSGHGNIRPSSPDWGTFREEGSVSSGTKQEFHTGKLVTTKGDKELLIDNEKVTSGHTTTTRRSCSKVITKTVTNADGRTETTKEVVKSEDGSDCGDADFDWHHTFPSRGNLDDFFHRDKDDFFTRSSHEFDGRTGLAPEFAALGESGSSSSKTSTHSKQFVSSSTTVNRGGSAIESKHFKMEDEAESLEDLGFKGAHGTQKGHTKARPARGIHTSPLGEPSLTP
# T1 sequence (P02676 1-468): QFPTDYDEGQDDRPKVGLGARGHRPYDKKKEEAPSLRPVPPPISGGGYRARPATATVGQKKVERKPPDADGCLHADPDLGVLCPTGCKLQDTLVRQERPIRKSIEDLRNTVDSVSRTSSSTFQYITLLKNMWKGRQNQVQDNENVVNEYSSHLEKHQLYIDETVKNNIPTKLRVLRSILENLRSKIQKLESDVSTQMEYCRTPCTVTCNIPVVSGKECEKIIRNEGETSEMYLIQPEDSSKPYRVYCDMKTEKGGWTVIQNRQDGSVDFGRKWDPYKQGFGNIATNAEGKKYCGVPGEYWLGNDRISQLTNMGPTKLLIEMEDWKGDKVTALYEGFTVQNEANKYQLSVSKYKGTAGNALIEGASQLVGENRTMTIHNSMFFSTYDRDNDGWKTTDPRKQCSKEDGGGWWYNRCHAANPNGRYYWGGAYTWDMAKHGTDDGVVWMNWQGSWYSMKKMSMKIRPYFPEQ
# T1 sequence (P12799 25-444): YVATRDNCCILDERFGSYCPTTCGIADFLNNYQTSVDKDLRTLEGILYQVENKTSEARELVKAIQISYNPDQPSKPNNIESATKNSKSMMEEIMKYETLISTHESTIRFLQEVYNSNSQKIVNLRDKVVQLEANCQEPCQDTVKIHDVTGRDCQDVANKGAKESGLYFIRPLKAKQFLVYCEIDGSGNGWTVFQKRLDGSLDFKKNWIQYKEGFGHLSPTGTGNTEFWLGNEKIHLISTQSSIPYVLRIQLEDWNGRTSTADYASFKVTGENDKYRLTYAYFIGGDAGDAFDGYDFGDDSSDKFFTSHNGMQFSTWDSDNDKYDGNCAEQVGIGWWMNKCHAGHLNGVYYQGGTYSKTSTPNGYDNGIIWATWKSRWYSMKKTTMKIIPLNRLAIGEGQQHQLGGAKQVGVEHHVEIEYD
# [2] = target: lysozyme (Gallus gallus, UniProt P00698); test: SPR adsorption of lysozyme to SAMs / grafted polymer films; format: binding; conditions: for % ML 3 min / dR/dt on: lysozyme; for % ML 3 min / dR/dt on / % Lys off: single-component SAMs (a) and mixed SAMs (b)
# [3] = mixed SAM —CONRR′/—CO2H, 1 mg/mL fibrinogen flowed 3 min, relative to —CONH(CH2)10CH3/—CO2H SAM
# [4] = mixed SAM —CONRR′/—CO2H, 1 mg/mL fibrinogen flowed 30 min
# [5] = mixed SAM —CONRR′/—CO2H, 1 mg/mL lysozyme flowed 3 min
# [6] = mixed SAM —CONRR′/—CO2H, 1 mg/mL lysozyme flowed 30 min
# Sequence of lysozyme (P00698 19-147): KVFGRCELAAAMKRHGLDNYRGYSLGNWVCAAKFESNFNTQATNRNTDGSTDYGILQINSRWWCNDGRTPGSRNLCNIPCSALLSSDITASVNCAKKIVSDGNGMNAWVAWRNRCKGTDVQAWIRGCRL
Compound,% Fiboff (percent decrease in adsorbed protein during 10 minute PBS wash) ([1]; mixed SAM —CONRR′/—CO2H) [%],dR/dton fibrinogen (maximum initial rate of adsorption) ([1]; mixed SAM —CONRR′/—CO2H) [RU/sec],"% MLfib 3 min [1, 3] [%]","% MLfib 30 min [1, 4] [%]",% Lysoff (percent decrease in adsorbed protein during 10 minute PBS wash) ([2]; mixed SAM —CONRR′/—CO2H) [%],dR/dton lysozyme (maximum initial rate of adsorption) ([2]; mixed SAM —CONRR′/—CO2H) [RU/sec],"% MLlys 3 min [2, 5] [%]","% MLlys 30 min [2, 6] [%]",further results
CN(C)C(=O)CNC(=O)CNC(=O)CN [H2N(Gly)3N(CH3)2] (H-Gly-Gly-Gly-NMe2),21 ± 0.7,55 ± 40,8 ± 1,22 ± 0.4,630 ± 4,620 ± 130,2.1 ± 1.5,8.8 ± 0.5,
Nc1ccc(O[C@@H]2O[C@H](CO)[C@H](O)[C@H](O)[C@H]2O)cc1,17 ± 0.7,570 ± 250,35 ± 5,49 ± 2.3,254 ± 10,1300 ± 260,11 ± 1.5,30 ± 3.3,
CNCC(=O)N(C)CC(=O)N(C)CC(=O)N(C)CC(=O)N(C)C [H(CH3)N(Sar)4N(CH3)2] (H-[Sar][Sar][Sar][Sar]-NMe2),,70 ± 20,0.5 ± 0.0,1.7 ± 0.2,70 ± 30,80 ± 40,0.8 ± 0.1,1.5 ± 0.7,
CN(CCN(C)P(=O)(N(C)C)N(C)C)C(=O)CCCCCCCCCCS [Entry 1a],,,,,,,,,% ML 30 min [1]: 37 ±2%; dR/dt on [1]: 83 ±40 RU/sec; % ML 3 min [1]: 13 ±0.2%; % Fib off [1]: 29 ±0.4%; % ML 3 min ([2]; footnote b (30 minutes)): 17 ±0.3%; % ML 3 min [2]: 4.5 ±0.1%; dR/dt on [2]: 330 ±110 RU/sec; % Lys off [2]: 240 ±2%
CNC [HN(CH3)2],,,,,,,,,% Fiboff (percent decrease in adsorbed protein during 10 minute PBS wash) [1]: 24 ± 0.1%; % MLfib 3 min [1]: 26 ± 6%; % MLfib 30 min [1]: 54 ± 0.8%; dR/dton fibrinogen (maximum initial rate of adsorption) [1]: 160 ± 30 RU/sec; % Lysoff (percent decrease in adsorbed protein during 10 minute PBS wash) [2]: 120 ± 1%; % MLlys 3 min [2]: 43 ± 16%; % MLlys 30 min [2]: 80 ± 3%; dR/dton lysozyme (maximum initial rate of adsorption) [2]: 2400 ± 260 RU/sec
NCC1COCCOCCOCCOCCOCCO1 (stereo not shown),9.7 ± 0.5,320 ± 110,44 ± 0.9,59 ± 2.3,14 ± 1.3,75 ± 40,3.9 ± 0.3,9.6 ± 0.5,
CNC[C@H](OC)[C@H](OC)[C@H](OC)[C@H](COC)OC,18 ± 2,50 ± 50,0.8 ± 0.5,2.9 ± 1.4,17 ± 40,100 ± 70,0.4 ± 0.4,6.1 ± 4,% ML 30 min [1]: 2.9 ±1.4%; dR/dt on [1]: 50 ±50 RU/sec; % ML 3 min [1]: 0.8 ±0.5%; % Fib off [1]: 18 ±2%; % ML 3 min ([2]; footnote b (30 minutes)): 6.1 ±4%; % ML 3 min [2]: 0.4 ±0.4%; dR/dt on [2]: 100 ±70 RU/sec; % Lys off [2]: 17 ±40%
COC[C@H](OC)[C@H](OC)[C@H](OC)[C@@H](CN(C)C(=O)CCCCCCCCCCS)OC [Entry 4a],,,,,,,,,% ML 30 min [1]: 0.7 ±0.1%; dR/dt on [1]: 30 ±14 RU/sec; % ML 3 min [1]: 0.2 ±0.1%; % Fib off [1]: 66 ±5%; % ML 3 min ([2]; footnote b (30 minutes)): 0.5 ±0.2%; % ML 3 min [2]: 0.5 ±0.0%; dR/dt on [2]: 29 ±20 RU/sec; % Lys off [2]: 7 ±0%
N#CCNCC#N [HN(CH2CN)2],7.9 ± 0.9,2200 ± 500,54 ± 3.8,73 ± 3,110 ± 1,2200 ± 500,36 ± 0.5,92 ± 0.3,
(CH3)2N(Sar)3-NHCO(CH2)15SH [Entry 5a],,,,,,,,,% ML 30 min [1]: 2.0%; dR/dt on [1]: 24 RU/sec; % ML 3 min [1]: 0.7%; % Fib off [1]: 5.7%; % ML 3 min ([2]; footnote b (30 minutes)): 2.0%; % ML 3 min [2]: 1.8%; dR/dt on [2]: 33 RU/sec; % Lys off [2]: 18%
N[C@H]1C(O)O[C@H](CO)[C@@H](O)[C@@H]1O (stereo partly shown),11 ± 0.0,210 ± 120,31 ± 0.7,55 ± 1.1,330 ± 0.2,620 ± 280,7.8 ± 0.2,25 ± 2.1,
CNCC(=O)N(C)CC(=O)N(C)CC(=O)N(C)CC(=O)N(C)CC(=O)N(C)C [H(CH3)N(Sar)5N(CH3)2],,50 ± 10,0.6 ± 0.3,1.3 ± 0.1,14 ± 4,50 ± 20,0.8 ± 0.7,1.0 ± 0.2,
OCCOCCN1CCNCC1,1.8 ± 0.1,54 ± 10,1.2 ± 0.1,3.7 ± 0.0,110 ± 5,20 ± 2,4.5 ± 0.0,27 ± 10,
Nc1ccc(O[C@@H]2O[C@H](CO)[C@@H](O)[C@H](O)[C@H]2O)cc1,38 ± 0.8,1200 ± 270,51 ± 1.8,67 ± 0.9,78 ± 1.7,1200 ± 270,27 ± 3.3,83 ± 2.3,
N#CCCNCCC#N [HN(CH2CH2CN)2],20 ± 0.7,590 ± 240,43 ± 1.0,58 ± 1.6,290 ± 8,2700 ± 160,17 ± 1.0,40 ± 2.0,
CC(=O)N1CCN(C(=O)CCCCCCCCCCCCCCCS)CC1 [Entry 2a],,,,,,,,,% ML 30 min [1]: 2.2 ±0.1%; dR/dt on [1]: 22 ±10 RU/sec; % ML 3 min [1]: 0.7 ±0.0%; % Fib off [1]: 6.8 ±5%; % ML 3 min ([2]; footnote b (30 minutes)): 0.8 ±0.2%; % ML 3 min [2]: 0.8 ±0.3%; dR/dt on [2]: 100 ±10 RU/sec; % Lys off [2]: 110 ±0%
CNCC(=O)N(C)C,28 ± 0.7,50 ± 23,1.0 ± 0.0,9.1 ± 0.3,740 ± 9,290 ± 130,0.2 ± 0.1,2.4 ± 0.3,
